Common to all, as to experiment: microbe, parasite or virus in culture
Common to all, as to type: cell-based

In assay [1] the test system is HCV 1b RLuc cells (dicistronic genotype 1b Con1 replicon, RLuc reporter). The protocol:
(§1) Evaluation of cell-based anti-HCV activity: Antiviral potency (EC50) was determined using a Renilla luciferase (RLuc)-based HCV replicon reporter assay. To perform the assay for genotype 1 and 2a JFH-1, HCV 1b RLuc cells (harboring a dicistronic genotype 1b Con1 replicon that encodes a RLuc reporter), or HCV 1a RLuc cells (harboring a dicistronic genotype 1a H77 replicon that encodes a RLuc reporter), or HCV 2a JFH-1 Rluc cells (harboring a dicistronic genotype 2a JFH-1 replicon that encodes a RLuc reporter) were dispensed into 384-well plates. To perform the assay for genotype 2a (with M31 present) or 2b, HCV 2a Rluc or 2b Rluc cells (both with M31 present) harboring a dicistronic NS5A chimeric genotype 2a JFH-1 replicon that encodes a RLuc reporter and either genotype 2a J6 strain NS5A gene or genotype 2b MD2b-1 NS5A gene (based on Los Alamos HCV database isolates, both with M31 present) respectively, were dispensed into 384-well plates. To perform the assay for genotype 3 and 4, HCV 3a RLuc or 4a Rluc cells harboring a dicistronic NS5A chimeric genotype 1b Con1 replicon that encodes a RLuc reporter and either a consensus genotype 3a NS5A gene or genotype 4a NS5A gene (based on Los Alamos HCV database isolates) respectively, were dispensed into 384-well plates. Compounds were re-suspended in DMSO at a concentration of 10 mM and serially diluted in DMSO either manually or using an automated pipeting instrument. Serially diluted compounds were mixed with cell culture media and added to the seeded cells. […] 72 hours later, cells were lysed and Renilla luciferase activity quantified as recommended by the manufacturer (Promega-Madison, Wis.). Non-linear regression was performed to calculate EC50 values.

Assay [2] has as its system HCV 3a RLuc cells (NS5A chimeric genotype 1b Con1 replicon with consensus genotype 3a NS5A gene). The protocol:
as §1

Assay [3] deals with HCV 2a JFH-1 Rluc cells (dicistronic genotype 2a JFH-1 replicon, RLuc reporter). The following applies: genotype 2a JFH-1 replicon, read-out: 2a JFH. Here is the method: as §1
For orientation: Replicon systems follow genome replication, usually without infectious particles.

The subject of assay [4] is HCV 1a RLuc cells (dicistronic genotype 1a H77 replicon, RLuc reporter). The following applies: genotype 1a H77 replicon, read-out: 1a. Here is the method: as §1
The mark [5] stands for this setting: Hepatitis C virus, 72 h, read-out: 1b (nM).
The mark [6] stands for this setting: Hepatitis C virus, 72 h, Table 1, 72 hours.
Where [7] appears, read: Hepatitis C virus, read-out: 3a, Table 2, genotype 3a NS5A chimeric replicon.
[8] abbreviates: Hepatitis C virus, 72 h, Table 2, 72 hours.
Where [9] appears, read: Hepatitis C virus, read-out: 1b (nM).
Setting [10] is: Hepatitis C virus, RLuc reporter.

The values that follow come from patent US10344019B2 (priority 2010, dated 2019).

Like-named read-outs stand apart in the source and are kept apart here. A value given as a limit tells only on which side of the number the result lay.

Turning to `COC(=O)N[C@H](C(=O)N1CCC[C@H]1c1ncc(-c2ccc3c4c(ccc3c2)-c2ccc(-c3cnc([C@@H]5CCCN5C(=O)C(c5ccccc5)N(C)C)[nH]3)cc2CO4)[nH]1)C(C)C` (stereo partly shown) [Example 3], the EC50 in assay [1] (setting [5]) is 0.011 nM; in assay [2] (Hepatitis C virus, read-out: 3a, Table 1, genotype 3a NS5A chimeric replicon), 0.001 to 0.99 nM; in assay [3] (setting [6]), 0.001 to 0.999 nM; in assay [4] (setting [6]), 0.001 to 0.999 nM.

In the case of `COC(=O)NC(C(=O)N1CCC[C@@H]1c1ncc(-c2cc3c4c(c2)OCc2cc(-c5cnc([C@H]6CCCN6C(=O)[C@@H](NC(=O)OC)C(C)C)[nH]5)cc(c2-4)OC3)[nH]1)C(C)C` (stereo partly shown) [Example 11], the EC50 was 0.258 nM in assay [1] (setting [5]), 0.001 to 0.999 nM in assay [3] (setting [6]) and 1 to 44 nM in assay [4] (setting [6]).

On to `COC(=O)N[C@H](C(=O)N1CCC[C@H]1c1ncc(-c2ccc(-c3ccc4cc(-c5cnc([C@@H]6CCCN6C(=O)[C@H](NC(=O)OC)c6ccccc6)[nH]5)ccc4c3)cc2)[nH]1)C(C)C` [Example 27], for which the EC50 was 0.011 nM in assay [1] (read-out: 1b); 0.001 to 0.99 nM in assay [2] (read-out: 3a, Table 2, genotype 3a NS5A chimeric replicon); 0.001 to 0.999 nM in assay [3] (Table 2, 72 hours); 0.001 to 0.999 nM in assay [4] (Table 2, 72 hours).

For the compound `COC(=O)N[C@H](C(=O)N1[C@@H]2CC[C@@H](C2)[C@H]1c1ncc(-c2ccc(-c3ccc4cc(-c5cnc([C@@H]6CC7(CC7)CN6C(=O)C(c6ccccc6)N6CCOCC6)[nH]5)ccc4c3)cc2)[nH]1)C(C)C` (stereo partly shown) [Example 28], the EC50 is 0.023 nM in assay [1] (setting [5]), 0.001 to 0.99 nM in assay [2] (setting [7]), 1 to 44 nM in assay [3] (setting [8]) and 1 to 44 nM in assay [4] (setting [8]).

For the compound `COC(=O)N[C@H](C(=O)N1CCC[C@H]1c1ncc(-c2ccc3cc(-c4ccc(-c5cnc([C@@H]6CCCN6C(=O)[C@H](NC(=O)OC)c6ccccc6)[nH]5)cc4)ccc3c2)[nH]1)C(C)C` [Example 29], the EC50 in assay [1] (setting [5]) is 0.014 nM; in assay [2] (setting [7]) it was 0.001 to 0.99 nM; in assay [3] (setting [8]) it was 0.001 to 0.999 nM; in assay [4] (setting [8]), 0.001 to 0.999 nM.

With `COC(=O)N[C@H](C(=O)N1CCC[C@H]1c1ncc(-c2ccc(-c3ccc4cc(-c5cnc([C@@H]6CCCN6C(=O)[C@H](NC(=O)OC)c6ccccc6)[nH]5)ccc4c3)cc2)[nH]1)C(C)C` [Example 30], the EC50 is 0.008 nM in assay [1] (setting [5]), 0.001 to 0.99 nM in assay [2] (setting [7]), 0.001 to 0.999 nM in assay [3] (setting [8]) and 0.001 to 0.999 nM in assay [4] (setting [8]).

For the compound `COC(=O)N[C@H](C(=O)N1CCC[C@H]1c1nc(-c2ccc3cc(-c4ccc(-c5cnc([C@@H]6CCCN6C(=O)[C@@H](c6ccccc6)N(C)C)[nH]5)cc4)ccc3c2)c[nH]1)C(C)C` [Example 31], the EC50 in assay [1] (setting [5]) was 0.014 nM; in assay [2] (setting [7]), 0.001 to 0.99 nM; in assay [3] (setting [8]), 0.001 to 0.999 nM; in assay [4] (setting [8]) it was 0.001 to 0.999 nM.

On to `COC(=O)N[C@H](C(=O)N1CCC[C@H]1c1ncc(-c2ccc3cc(-c4ccc(-c5cnc([C@@H]6C[C@H](C)CN6C(=O)[C@H](NC(=O)OC)c6ccccc6)[nH]5)cc4)ccc3c2)[nH]1)C(C)C` [Example 32], for which the EC50 was 0.02 nM in assay [1] (setting [5]), above 5 nM in assay [2] (setting [7]), 0.001 to 0.999 nM in assay [3] (setting [8]) and 0.001 to 0.999 nM in assay [4] (setting [8]).

As for `COC(=O)N[C@H](C(=O)N1CC(=O)C[C@H]1c1ncc(-c2ccc(-c3ccc4cc(-c5cnc([C@@H]6CCCN6C(=O)[C@@H](c6ccccc6)N(C)C)[nH]5)ccc4c3)cc2)[nH]1)C(C)C` [Example 33], the EC50 is 0.009 nM in assay [1] (setting [5]), 0.001 to 0.99 nM in assay [2] (setting [7]), 0.001 to 0.999 nM in assay [3] (setting [8]) and 0.001 to 0.999 nM in assay [4] (setting [8]).

Consider `COC(=O)N[C@H](C(=O)N1CCC[C@H]1c1ncc(-c2ccc3cc(-c4ccc(-c5cnc([C@@H]6CC(=O)CN6C(=O)[C@@H](c6ccccc6)N(C)C)[nH]5)cc4)ccc3c2)[nH]1)C(C)C` [Example 34], for which the EC50 was 0.018 nM in assay [1] (setting [5]), 0.001 to 0.99 nM in assay [2] (setting [7]), 0.001 to 0.999 nM in assay [3] (setting [8]) and 0.001 to 0.999 nM in assay [4] (setting [8]).

Turning to `COC(=O)N[C@H](C(=O)N1CC2(C[C@H]1c1ncc(-c3ccc(-c4ccc5cc(-c6cnc([C@@H]7CCCN7C(=O)[C@H](NC(=O)OC)c7ccccc7)[nH]6)ccc5c4)cc3)[nH]1)OCCO2)C(C)C` [Example 35], the EC50 was 0.008 nM in assay [1] (setting [5]), 0.001 to 0.99 nM in assay [2] (setting [7]), 0.001 to 0.999 nM in assay [3] (setting [8]) and 0.001 to 0.999 nM in assay [4] (setting [8]).

With `CCN(CC)[C@@H](C(=O)N1CCC[C@H]1c1ncc(-c2ccc3cc(-c4ccc(-c5cnc([C@@H]6CC7(COCO7)CN6C(=O)[C@@H](NC(=O)OC)C(C)C)[nH]5)cc4)ccc3c2)[nH]1)c1ccccc1` (stereo partly shown) [Example 36], the EC50 was 0.01 nM in assay [1] (setting [5]), 0.001 to 0.99 nM in assay [2] (setting [7]), 0.001 to 0.999 nM in assay [3] (setting [8]) and 0.001 to 0.999 nM in assay [4] (setting [8]).

`COC(=O)N[C@H](C(=O)N1CC2(CC2)C[C@H]1c1ncc(-c2ccc3c(c2)C(F)(F)c2cc(-c4cnc([C@@H]5[C@H]6CC[C@H](C6)N5C(=O)[C@H](NC(=O)OC)c5ccccc5)[nH]4)ccc2-3)[nH]1)C(C)C` [Example 37]: the EC50 in assay [1] (setting [5]) was 0.004 nM; in assay [2] (setting [7]), 0.001 to 0.99 nM; in assay [3] (setting [8]) it was 1 to 44 nM; in assay [4] (setting [8]) it was 0.001 to 0.999 nM.

For `COC(=O)N[C@H](C(=O)N1CC2(C[C@H]1c1ncc(-c3ccc4c(c3)C(F)(F)c3cc(-c5ccc6nc(C7[C@H]8CC[C@H](C8)N7C(=O)[C@@H](NC(=O)OC)C(C)C)[nH]c6c5)ccc3-4)[nH]1)OCCO2)C(C)C` (stereo partly shown) [Example 38], the EC50 in assay [1] (setting [5]) is 0.003 nM; in assay [2] (setting [7]), above 5 nM; in assay [3] (setting [8]), 1 to 44 nM; in assay [4] (setting [8]) it was 0.001 to 0.999 nM.

`COC(=O)N[C@H](C(=O)N1[C@@H]2CC[C@@H](C2)[C@H]1c1ncc(-c2ccc(-c3ccc4c(ccc5nc([C@@H]6CCCN6C(=O)[C@@H](NC(=O)OC)C6CCOCC6)[nH]c54)c3)cc2)[nH]1)C(C)C` [Example 82]: the EC50 was 0.042 nM in assay [1] (setting [5]), 0.001 to 0.99 nM in assay [2] (setting [7]), 0.001 to 0.999 nM in assay [3] (setting [8]) and 0.001 to 0.999 nM in assay [4] (setting [8]).

For the compound `COC(=O)N[C@H](C(=O)N1CCC[C@H]1c1ncc(-c2ccc3cc(-c4ccc(-c5cnc([C@@H]6C[C@@H](F)CN6C(=O)[C@H](NC(=O)OC)c6ccccc6)[nH]5)cc4)ccc3c2)[nH]1)C(C)C` [Example 140], the EC50 in assay [2] (read-out: 3a, genotype 3a NS5A chimeric 1b Con1 replicon) fell in the range of 0.001 to 0.99 nM; in assay [4] (RLuc reporter) it was 0.001 to 0.999 nM.

As for `COC(=O)N[C@H](C(=O)N1CCC[C@H]1c1ncc(-c2ccc3cc(-c4ccc(-c5cnc([C@@H]6CCCN6C(=O)[C@H](NC(=O)OC(C)(C)C)c6ccccc6)[nH]5)cc4)ccc3c2)[nH]1)C(C)C` [Example 186], the EC50 in assay [1] (setting [9]) was 0.004 nM; in assay [3] (setting [10]), 0.001 to 0.999 nM; in assay [4] (setting [10]), 0.001 to 0.999 nM.

As for `COC(=O)N[C@H](C(=O)N1CCC[C@H]1c1ncc(-c2ccc3c(c2)CCc2cc(-c4cnc([C@@H]5CCCN5C(=O)C(c5ccccc5)N(C)C)[nH]4)ccc2-3)[nH]1)C(C)C` (stereo partly shown) [Example 190], in assay [2] (Hepatitis C virus, read-out: 3a, genotype 3a NS5A chimeric 1b Con1 replicon), the EC50 fell in the range of 0.001 to 0.99 nM.

`COC(=O)NC(C(=O)N1C[C@H](C)C[C@H]1c1ncc(-c2ccc(-c3ccc4cc(-c5cnc([C@@H]6CCCN6C(=O)[C@@H](NC(=O)OC)C6CCOCC6)[nH]5)ccc4c3)cc2)[nH]1)c1cnccn1` (stereo partly shown) [Example 254]: the values for the EC50 in assay [1] (setting [9]), in assay [3] (setting [10]) and in assay [4] (setting [10]) were 0.077 nM, 0.001 to 0.999 nM and 0.001 to 0.999 nM, respectively.

`COC(=O)NC(C(=O)N1C[C@H](C)C[C@H]1c1ncc(-c2ccc(-c3ccc4cc(-c5cnc([C@@H]6CCCN6C(=O)[C@@H](NC(=O)OC)C(C)C)[nH]5)ccc4c3)cc2)[nH]1)c1cnccn1` (stereo partly shown) [Example 255]: the EC50 is 0.015 nM in assay [1] (setting [9]), 1 to 44 nM in assay [3] (setting [10]) and 0.001 to 0.999 nM in assay [4] (setting [10]).

For the compound `COC(=O)N[C@H](C(=O)N1CCC[C@H]1c1ncc(-c2ccc3cc(-c4ccc(-c5cnc([C@@H]6CCCN6C(=O)[C@@H](NC(=O)OCc6ccccc6)C6CCSCC6)[nH]5)cc4)ccc3c2)[nH]1)C(C)C` [Example 276], the EC50 in assay [3] (RLuc reporter) and in assay [4] (RLuc reporter) was above 44 nM throughout.
